Usually EC50 stands for the concentration that produces a half-maximal response. Read a high EC50 as a less potent agent.

In patent US20100272680A1, “Piperidinyl Cyclic Amido Antiviral Agents” (priority 2009, published 2010) one finds EC50 data, which are given here for 20 molecules.

Molecules are shown by their SMILES.

The subject of assay [1] is HCV Genotype 1B Replicon. The assay can be described thus: Replicon assay, genotype 1b subgenomic replicon (ET cell line), luciferase readout. The following applies: Hepatitis C virus, 48 h, Table 3; luciferase activity after 48 hours. Format: cell-based. As to the method: (§1) Compounds were assayed for activity against HCV using the genotype 1a and 1b subgenomic replicon model systems. Stable cell lines bearing the genotype 1a and 1b replicons were used for screening of compounds. Both replicons are bicistonic and contain the firefly luciferase gene. The ET cell line is stably transfected with RNA transcripts harboring a I389luc-ubi-neo/NS3-3′/ET replicon with firefly luciferase-ubiquitin-neomycin phosphotransferase fusion protein and EMCV-IRES driven NS3-5B polyprotein containing the cell culture adaptive mutations (E1202G; T12801; K1846T) (Krieger at al, 2001 and unpublished). The genotype 1a replicon is a stable cell line licensed from Apath LLC, modified to contain the firefly luciferase gene. The cells were grown in DMEM, supplemented with 10% fetal calf serum, 2 mM Glutamine, Penicillin (100 IU/mL)/Streptomycin (100 μg/mL), 1× nonessential amino acids, and 250-500 μg/mL G418 (“Geneticin”). They were all available through Life Technologies (Bethesda, Md.). The cells were plated at 0.5×10^4 cells/well in 384 well plates containing compounds. The final concentration of compounds ranged between 0.03 μM to 50 μm and the final DMSO concentration of 0.5-1%.
(§2) Luciferase activity was measured 48 hours later by adding a Steady glo (Promega, Madison, Wis.). Percent inhibition of replication data was plotted relative to no compound control. Under the same condition, cytotoxicity of the compounds was determined using cell titer glo (Promega, Madison, Wis). IC50s were determined from a 10 point dose response curve using 3-4-fold serial dilution for each compound, which spans a concentration range >1000 fold. BioAssay determines the level of inhibition for each compound by normalizing cross-talk corrected plate values against the negative […] controls to determine Percent Inhibition:
(§3) These normalized values are exported to EC50 where they are plotted against the molar compound concentrations using the standard four parameter logistic equation: […]
(§4) Some EC50 measurements were repeated a second time and for both 1A and 1B genotypes after those reported in Table 2 for compounds 101-108 and the repeated data was reported in Table 3.

For assay [2], the system named is HCV Genotype 1A Replicon. Description: Replicon assay, genotype 1a subgenomic replicon, luciferase readout. It counts as cell-based. The note with it: Hepatitis C virus, 48 h, Table 3; luciferase activity after 48 hours. As to the method: as §1, §2, §3, §4
(In antiviral work, replicon cells carry a viral genome segment that copies itself.)

Consider `C[C@H]1C[C@@H](N2CCOC2=O)CCN1C(=O)c1nc2c(C(F)(F)F)cc(-c3ccoc3)cn2c1Cl` (racemic) [Compound 205, (±) cis-3-(1-{[3-chloro-6-(3-furanyl)-8-(trifluoromethyl)imidazo[1,2-a]pyridin-2-yl]carbonyl}-2-methyl-4-piperidinyl)-1,3-oxazolidin-2-one], for which the figures for the EC50 in assay [1] and in assay [2] were 1760 nM and 1070 nM, respectively. For `C[C@@H]1C[C@@H](N2CCOC2=O)CCN1C(=O)c1nc2c(C(F)(F)F)cc(-c3ccoc3)cn2c1Cl` (racemic) [Compound 206, (±) trans-3-(1-{[3-chloro-6-(3-furanyl)-8-(trifluoromethyl)imidazo[1,2-a]pyridin-2-yl]carbonyl}-2-methyl-4-piperidinyl)-1,3-oxazolidin-2-one] the same measures were 140 nM and 70 nM.

For `O=C(c1nc2c(C(F)(F)F)cc(-c3ccoc3)cn2c1Cl)N1CC[C@@H](N2CCOC2=O)[C@H](O)C1` (racemic) [Compound 212, (±) trans-3-(1-{[3-chloro-6-(3-furanyl)-8-(trifluoromethyl)imidazo[1,2-a]pyridin-2-yl]carbonyl}-3-hydroxy-4-piperidinyl)-1,3-oxazolidin-2-one], the figures for the EC50 in assay [1] and in assay [2] were 80 nM and 50 nM, respectively.

With `CC(C)Cc1cc(C(F)(F)F)c2nc(C(=O)N3CC[C@H](N4CCOC4=O)[C@@H](O)C3)c(Cl)n2c1` (racemic) [Compound 215, (±) trans-3-(1-{[3-chloro-6-(2-methylpropyl)-8-(trifluoromethyl)imidazo[1,2-a]pyridin-2-yl]carbonyl}-3-hydroxy-4-piperidinyl)-1,3-oxazolidin-2-one], the EC50 in assay [1] was determined as 350 nM; in assay [2] it was 90 nM. For `O=C(c1nc2c(C(F)(F)F)cc(Br)cn2c1Cl)N1CC[C@H](N2CCOC2=O)[C@@H](O)C1` (racemic) [Compound 219, (±) trans-3-(1-{[6-bromo-3-chloro-8-(trifluoromethyl)imidazo[1,2-a]pyridin-2-yl]carbonyl}-3-hydroxy-4-piperidinyl)-1,3-oxazolidin-2-one], the EC50 in assay [1] was 580 nM; in assay [2], 150 nM.

Consider `O=C(c1nc2c(C(F)(F)F)cc(Br)cn2c1Cl)N1CC[C@H](N2C(=O)COC2=O)[C@@H](O)C1` (racemic) [Compound 222, (±) trans-3-(1-{[6-bromo-3-chloro-8-(trifluoromethyl)imidazo[1,2-a]pyridin-2-yl]carbonyl}-3-hydroxy-4-piperidinyl)-1,3-oxazolidine-2,4-dione], for which the EC50 in assay [1] turned out to be 20 nM; in assay [2] it was 940 nM.

For `O=C(c1nc2c(C(F)(F)F)cc(-c3ccoc3)cn2c1Cl)N1CC[C@H](N2C(=O)COC2=O)[C@@H](O)C1` (racemic) [Compound 223, (±) trans-3-(1-{[3-chloro-6-(3-furanyl)-8-(trifluoromethyl)imidazo[1,2-a]pyridin-2-yl]carbonyl}-3-hydroxy-4-piperidinyl)-1,3-oxazolidine-2,4-dione], the EC50 in assay [1] came to 810 nM; in assay [2], 1580 nM.

In the case of `O=C(c1nc2c(C(F)(F)F)cc(C3CC3)cn2c1Cl)N1CC[C@H](N2C(=O)COC2=O)[C@@H](O)C1` (racemic) [Compound 224, (±) trans-3-(1-{[3-chloro-6-cyclopropyl-8-(trifluoromethyl)imidazo[1,2-a]pyridin-2-yl]carbonyl}-3-hydroxy-4-piperidinyl)-1,3-oxazolidine-2,4-dione], the values for the EC50 in assay [1] and in assay [2] were 210 nM and 1430 nM, respectively. Take `O=C(c1nc2c(C(F)(F)F)cc(C3CC3)cn2c1Cl)N1CC[C@H](N2CCCC2=O)[C@@H](O)C1` (racemic) [Compound 225, (±) trans-1-(1-{[3-chloro-6-cyclopropyl-8-(trifluoromethyl)imidazo[1,2-a]pyridin-2-yl]carbonyl}-3-hydroxy-4-piperidinyl)-2-pyrrolidinone]: the figures for the EC50 in assay [1] and in assay [2] were 150 nM and 480 nM, respectively. `O=C(c1nc2c(C(F)(F)F)cc(Br)cn2c1Cl)N1CC[C@H](N2CCCC2=O)[C@@H](O)C1` (racemic) [Compound 226, (±) trans-1-(1-{[6-bromo-3-chloro-8-(trifluoromethyl)imidazo[1,2-a]pyridin-2-yl]carbonyl}-3-hydroxy-4-piperidinyl)-2-pyrrolidinone]: the 50% effective concentration (EC50) was found to be 1450 nM in assay [1] and 2260 nM in assay [2]. For `O=C(c1nc2c(C(F)(F)F)cc(-c3ccoc3)cn2c1Cl)N1CC[C@H](N2CCCC2=O)[C@@H](O)C1` (racemic) [Compound 227, (±) trans-1-(1-{[3-chloro-6-(3-furanyl)-8-(trifluoromethyl)imidazo[1,2-a]pyridin-2-yl]carbonyl}-3-hydroxy-4-piperidinyl)-2-pyrrolidinone], in that order: 340 nM and 690 nM. As to `O=C(c1nc2c(C(F)(F)F)cc(C3CC3)cn2c1Cl)N1CC[C@H](N2CCCC2=O)[C@H](O)C1` (racemic) [Compound 228, (±) cis-1-(1-{[3-chloro-6-cyclopropyl-8-(trifluoromethyl)imidazo[1,2-a]pyridin-2-yl]carbonyl}-3-hydroxy-4-piperidinyl)-2-pyrrolidinone], the EC50 in assay [1] was 90 nM; in assay [2], 250 nM.

Regarding `O=C(c1nc2c(C(F)(F)F)cc(Br)cn2c1Cl)N1CC[C@H](N2CCCC2=O)[C@H](O)C1` (racemic) [Compound 229, (±) cis-1-(1-{[6-bromo-3-chloro-8-(trifluoromethyl)imidazo[1,2-a]pyridin-2-yl]carbonyl}-3-hydroxy-4-piperidinyl)-2-pyrrolidinone], the EC50 in assay [1] came to 350 nM; in assay [2], 960 nM. On to `O=C(c1nc2c(C(F)(F)F)cc(-c3ccoc3)cn2c1Cl)N1CC[C@H](N2CCCC2=O)[C@H](O)C1` (racemic) [Compound 230, (±) cis-1-(1-{[3-chloro-6-(3-furanyl)-8-(trifluoromethyl)imidazo[1,2-a]pyridin-2-yl]carbonyl}-3-hydroxy-4-piperidinyl)-2-pyrrolidinone], for which the EC50 in assay [1] came to 180 nM; in assay [2], 420 nM. For the molecule `O=C(c1nc2c(C(F)(F)F)cc(C3CC3)cn2c1Cl)N1CC[C@H](N2CCOC2=O)[C@H](O)C1` (racemic) [Compound 231, (±) cis-3-(1-{[3-chloro-6-cyclopropyl-8-(trifluoromethyl)imidazo[1,2-a]pyridin-2-yl]carbonyl}-3-hydroxy-4-piperidinyl)-1,3-oxazolidin-2-one], the 50% effective concentration (EC50) in assay [1] came out at 30 nM; in assay [2] it was 20 nM.

For the molecule `O=C(c1nc2c(C(F)(F)F)cc(Br)cn2c1Cl)N1CC[C@H](N2CCOC2=O)[C@H](O)C1` (racemic) [Compound 233, (±) cis-3-(1-{[6-bromo-3-chloro-8-(trifluoromethyl)imidazo[1,2-a]pyridin-2-yl]carbonyl}-3-hydroxy-4-piperidinyl)-1,3-oxazolidin-2-one], the figures for the EC50 in assay [1] and in assay [2] were 180 nM and 110 nM, respectively. Regarding `CO[C@H]1CN(C(=O)c2nc3c(C(F)(F)F)cc(-c4ccoc4)cn3c2Cl)CC[C@@H]1N1CCOC1=O` (racemic) [Compound 236, (±) trans-3-[1-{[3-chloro-6-(3-furanyl)-8-(trifluoromethyl)imidazo[1,2-a]pyridin-2-yl]carbonyl}-3-(methyloxy)-4-piperidinyl]-1,3-oxazolidin-2-one], the half-maximal effective concentration (EC50) in assay [1] and in assay [2] was at least 5010 nM each time. Turning to `CO[C@H]1CN(C(=O)c2nc3c(C(F)(F)F)cc(Br)cn3c2Cl)CC[C@@H]1N1CCOC1=O` (racemic) [Compound 237, (±) trans-3-[1-{[6-bromo-3-chloro-8-(trifluoromethyl)imidazo[1,2-a]pyridin-2-yl]carbonyl}-3-(methyloxy)-4-piperidinyl]-1,3-oxazolidin-2-one], the EC50 in assay [1] and in assay [2] was at least 5010 nM in each case. Turning to `CO[C@H]1CN(C(=O)c2nc3c(C(F)(F)F)cc(C4CC4)cn3c2Cl)CC[C@@H]1N1CCOC1=O` (racemic) [Compound 238, (±) trans-3-[1-{[3-chloro-6-cyclopropyl-8-(trifluoromethyl)imidazo[1,2-a]pyridin-2-yl]carbonyl}-3-(methyloxy)-4-piperidinyl]-1,3-oxazolidin-2-one], the EC50 in assay [1] and in assay [2] was at least 5010 nM each time.

As to `O=C(c1nc2c(C(F)(F)F)cc(C3CC3)cn2c1Cl)N1CC[C@H](N2CCOC2=O)[C@H](O)C1` (single isomer, unassigned; enantiomer 1) [Compound 234, 3-((cis)-1-{[3-chloro-6-cyclopropyl-8-(trifluoromethyl)imidazo[1,2-a]pyridin-2-yl]carbonyl}-3-hydroxy-4-piperidinyl)-1,3-oxazolidin-2-one (Enantiomer 1)], the concentration for a half-maximal effect (EC50) in assay [1] was 50 nM.
